Target: HIV-1 RT (Human immunodeficiency virus type 1 group M subtype B, UniProt P04585)
Test: in vitro anti-HIV activity: inhibition of HIV-1 RT
Assay type: biochemical
Settings: for activity against HIV-1 RT (result in words) / IC50: in vitro; for activity against HIV-1 RT (result in words): same biological target as the IC50 values

Row | Compound | activity against HIV-1 RT (result in words) | IC50 [µM] | other results
1 | C=C1CCC[C@H]2[C@](CO)(Cc3cc(C(=O)OC)c(O)c(OC)c3O)[C@@H](C)CC[C@]12C [Compound 1, 19-hydroxy-polyfibrospongol B] | inactive |  | 
2 | C=C1CCC[C@H]2[C@](CO)(Cc3cc(C(=O)OC)cc(OC)c3O)[C@@H](C)CC[C@]12C [Compound 2, polyfibrospongol B] | inactive |  | 
3 | C=C1CCC[C@H]2[C@](C)(CC3=C(O)C(=O)C=C(OC)C3=O)[C@@H](C)CC[C@]12C [Compound 3, isosemnonorthoquinone] |  | 240 | 
4 | C=C1CCC[C@H]2[C@](C)(CC3=C(O)C(=O)C=C(N)C3=O)[C@@H](C)CC[C@]12C [Compound 5, smenospongine] |  | 176 | 
5 | C=C1CCC[C@H]2[C@](C)(CC(=O)C3=C(OC)C(O)OC3=O)[C@@H](C)CC[C@]12C (stereo partly drawn) [Compound 6, smenotronic acid] |  | 130 | 
6 | O=C(O)P(=O)(O)O [PFA, reference compound] |  |  | inhibition ratio of HIV-1 RT (at 0.05 µM, positive control): 85%
